From patent US20050209248A1, “Plymorphic forms of phenyl oxazolidinone derivatives” (priority 2002, published 2005)
Converted amounts (≈) assume the structure as drawn. Read-outs that look alike come from different tables or passages of the source.

Tests used:
[1] = test system: Prevotella bivia; test: Agar dilution MIC; type: cell-based; details: Prevotella bivia isolate
[2] = test system: anaerobic bacteria; test: NCCLS agar dilution MIC, anaerobic bacteria (summary); type: cell-based; details: anaerobes, Wilkins Chalgren Agar, 48 hour anaerobic incubation; for MIC Range: in µg/mL
[3] = test system: Porphyromonas asaccharolytica; test: Agar dilution MIC; type: cell-based; details: Porphyromonas asaccharolytica isolate
[4] = test system: Fusobacterium necrogenes; test: Agar dilution MIC; type: cell-based; details: Fusobacterium necrogenes isolate
[5] = test system: Porphyromonas gingivalis; test: Agar dilution MIC; type: cell-based; details: Porphyromonas gingivalis isolate
[6] = test system: Mycobacterium tuberculosis; test: Agar dilution method for M. tuberculosis (Middlebrook 7H10); type: cell-based; details: 504 h; for MIC90 / MIC: 21 days at 37° C.; for MIC: read-out: G.M. (MIC)
[7] = test system: Mycobacterium avium intracellulare; test: Agar dilution method (Middlebrook 7H10); type: cell-based; details: 504 h, 21 days at 37° C.; for MIC: read-out: G.M. (MIC)
[8] = test system: MRSE 879; test: Broth MIC; type: cell-based; details: for MIC: Staphylococcus epidermidis, read-out: broth MIC
Excerpt: (§1) The change in MIC in broth and on sintered glass adherent bacteria is presented in Graph E. [drawing]

[9] = test system: Clostridium perfringens; type: cell-based
[10] = test system: MRSE 879 adherent bacteria; test: Sintered glass adherent bacteria model; type: cell-based; details: MRSE 879, sintered glass adherent
Excerpt: (§2) Inhibition of slime production • 2. Activity against glass-adherent bacteria.
as §1

[11] = in vivo; cited from earlier work
[12] = test system: MRSA 1029/99 and MRSE 879/247; test: Inhibition of biofilm (slime) production, safranin staining; type: cell-based; details: trypticase soy broth with 2% glucose, overnight 37° C., Graphs A to D
Experimental: as §2
To study the effect of polymorphic ‘Form A’ on the inhibition of biofilm production, the following study was carried out as set forth in Blake et al. J. Clinical Microbiol. 2001; 39:544-550; and Polonio et al. Chemother. 2001; 45:3262-3266. […] Bacterial suspensions (in triplicate) were exposed a doubling dilution of antibiotics and incubated overnight at 37° C. with constant shaking (100 rpm). The next day, after aspirating the medium, the biofilm was stained with safranin (0.1%) for 1 hour at room temperature, washed with distilled water, tapped dry and stain-extracted into 200 μl of 0.2M NaoH and the OD measured at 544 nm.

Row | Compound | MIC [1] | Geometric Mean (MIC) [2] | MIC50 [2] | MIC90 [2] | MIC Range [2] | MIC [3] | MIC [4] | MIC [5] | MIC50 [6] | MIC90 [6] | MIC [6] | MIC50 [7] | MIC90 [7] | MIC [7] | also measured
1 | Amox + clav | ≤ 0.125 µg/mL | 0.423 µg/mL | 0.25 µg/mL | 8 µg/mL | 0.062-32 | ≤ 0.125 µg/mL | 0.5 µg/mL | ≤ 0.125 µg/mL | – | – | – | – | – | – | –
2 | NNC(=O)c1ccncc1 [Isoniazid] | – | – | – | – | – | – | – | – | 8 µg/mL (≈ 58.3 µM) | 64 µg/mL (≈ 467 µM) | 3.17 µg/mL (≈ 23.1 µM) | 32 µg/mL (≈ 233 µM) | 64 µg/mL (≈ 467 µM) | 18.1 µg/mL (≈ 132 µM) | –
3 | Teicoplanin | 1 µg/mL | 2.04 µg/mL | 2 µg/mL | 32 µg/mL | 0.03-32 | 0.125 µg/mL | > 16 µg/mL | ≤ 0.06 µg/mL | – | – | – | – | – | – | –
4 | COc1c(N2C[C@@H]3CCCN[C@@H]3C2)c(F)cc2c(=O)c(C(=O)O)cn(C3CC3)c12 [Moxifloxacin] | – | – | – | – | – | 0.5 µg/mL (≈ 1.25 µM) | 1 µg/mL (≈ 2.49 µM) | 0.03 µg/mL (≈ 0.0747 µM) | – | – | – | – | – | – | –
5 | CN[C@H](CC(C)C)C(=O)N[C@H]1C(=O)N[C@@H](CC(N)=O)C(=O)N[C@H]2C(=O)N[C@H]3C(=O)N[C@H](C(=O)N[C@H](C(=O)O)c4cc(O)cc(O)c4-c4cc3ccc4O)[C@H](O)c3ccc(c(Cl)c3)Oc3cc2cc(c3O[C@@H]2O[C@H](CO)[C@@H](O)[C@H](O)[C@H]2O[C@H]2C[C@](C)(N)[C@H](O)[C@H](C)O2)Oc2ccc(cc2Cl)[C@H]1O [Vancomycin] | > 16 µg/mL | 9.31 µg/mL | 32 µg/mL (≈ 22.1 µM) | 32 µg/mL (≈ 22.1 µM) | 0.5-32 | 2 µg/mL (≈ 1.38 µM) | > 16 µg/mL | 8 µg/mL (≈ 5.52 µM) | – | – | – | – | – | – | MIC ([8]; MRSE): 1 µg/mL (≈ 0.69 µM); MIC [9]: 0.5 µg/mL (≈ 0.345 µM); concentration which would kill adherent bacteria [10]: 8 µg/mL
6 | CC[C@H]1OC(=O)[C@H](C)[C@@H](O[C@H]2C[C@@](C)(OC)[C@@H](O)[C@H](C)O2)[C@H](C)[C@@H](O[C@@H]2O[C@H](C)C[C@H](N(C)C)[C@H]2O)[C@](C)(OC)C[C@@H](C)C(=O)[C@H](C)[C@@H](O)[C@]1(C)O [Clarithromycin] | – | – | – | – | – | – | – | – | 16 µg/mL (≈ 21.4 µM) | 32 µg/mL (≈ 42.8 µM) | 12.7 µg/mL (≈ 17 µM) | 1 µg/mL (≈ 1.34 µM) | 4 µg/mL (≈ 5.35 µM) | 1.55 µg/mL (≈ 2.08 µM) | –
7 | CC(=O)NC[C@H]1CN(c2ccc(N3CCOCC3)c(F)c2)C(=O)O1 [Linezolid] | 1 µg/mL (≈ 2.96 µM) | 1.13 µg/mL | 1 µg/mL (≈ 2.96 µM) | 4 µg/mL (≈ 11.9 µM) | 0.25-4 | 1 µg/mL (≈ 2.96 µM) | 0.5 µg/mL (≈ 1.48 µM) | 1 µg/mL (≈ 2.96 µM) | 8 µg/mL (≈ 23.7 µM) | 64 µg/mL (≈ 190 µM) | 8 µg/mL (≈ 23.7 µM) | 16 µg/mL (≈ 47.4 µM) | 64 µg/mL (≈ 190 µM) | 20.6 µg/mL (≈ 61 µM) | MIC ([8]; MRSE 879, broth): 2 µg/mL (≈ 5.93 µM); Cmax [11]: 12 to 16 µg/mL; concentration which would kill adherent bacteria [10]: 32 µg/mL
8 | CCC[C@@H]1C[C@@H](C(=O)N[C@@H]([C@H]2O[C@H](SC)[C@H](O)[C@@H](O)[C@H]2O)[C@H](C)Cl)N(C)C1 [Clindamycin] | > 32 µg/mL | 0.208 µg/mL | 0.125 µg/mL (≈ 0.294 µM) | 8 µg/mL (≈ 18.8 µM) | 0.008-64 | ≤ 0.016 µg/mL | 0.03 µg/mL (≈ 0.0706 µM) | ≤ 0.016 µg/mL | – | – | – | – | – | – | –
9 | COc1c(N2CCNC(C)C2)c(F)cc2c(=O)c(C(=O)O)cn(C3CC3)c12 (stereo not shown) [Gatifloxacin] | 2 µg/mL (≈ 5.33 µM) | 0.659 µg/mL | 0.5 µg/mL (≈ 1.33 µM) | 2 µg/mL (≈ 5.33 µM) | 0.06-32 | 0.25 µg/mL (≈ 0.666 µM) | 0.5 µg/mL (≈ 1.33 µM) | 0.06 µg/mL (≈ 0.16 µM) | – | – | – | – | – | – | –
10 | CC1(C)S[C@@H]2[C@H](NC(=O)[C@H](N)c3ccc(O)cc3)C(=O)N2[C@H]1C(=O)O [Amox] | – | 1.37 µg/mL | 1 µg/mL (≈ 2.74 µM) | 256 µg/mL (≈ 701 µM) | 0.062-256 | – | 0.5 µg/mL (≈ 1.37 µM) | – | – | – | – | – | – | – | –
11 | C[C@@H]1CN(c2c(F)c(N)c3c(=O)c(C(=O)O)cn(C4CC4)c3c2F)C[C@H](C)N1 [Sparfloxacin] | – | – | – | – | – | – | – | – | 1 µg/mL (≈ 2.55 µM) | 2 µg/mL (≈ 5.1 µM) | 0.53 µg/mL (≈ 1.35 µM) | 4 µg/mL (≈ 10.2 µM) | 8 µg/mL (≈ 20.4 µM) | 3.53 µg/mL (≈ 8.99 µM) | –
12 | C[C@@H](O)[C@H]1C(=O)N2C(C(=O)O)=C(SCCN=CN)C[C@H]12 [Imipenem] | 0.03 µg/mL (≈ 0.1 µM) | 0.084 µg/mL | 0.064 µg/mL (≈ 0.214 µM) | 1 µg/mL (≈ 3.34 µM) | 0.008-4 | 0.03 µg/mL (≈ 0.1 µM) | 0.25 µg/mL (≈ 0.835 µM) | ≤ 0.016 µg/mL | – | – | – | – | – | – | –
13 | CC(=O)NC[C@H]1CN(c2ccc(N3CCN(Cc4ccc([N+](=O)[O-])o4)CC3)c(F)c2)C(=O)O1.Cl [Polymorphic ‘Form A’] | 0.125 µg/mL | 0.037 µg/mL | 0.032 µg/mL | 0.25 µg/mL | 0.004-1 | ≤ 0.008 µg/mL | ≤ 0.008 µg/mL | ≤ 0.008 µg/mL | 4 µg/mL | 64 µg/mL | 5.44 µg/mL | 8 µg/mL | 32 µg/mL | 8.52 µg/mL | MIC ([8]; MRSE 879, broth): 0.5 µg/mL; Inhibition of Biofilm formation [12]: occurs at a lower concentration; concentration which would kill adherent bacteria [10]: 2 µg/mL
14 | Cc1ncc([N+](=O)[O-])n1CCO [Metronidazole] | 1 µg/mL (≈ 5.84 µM) | 0.48 µg/mL | 0.5 µg/mL (≈ 2.92 µM) | 2 µg/mL (≈ 11.7 µM) | 0.062-32 | – | 0.25 µg/mL (≈ 1.46 µM) | – | – | – | – | – | – | – | –
15 | CO[C@H]1/C=C/O[C@@]2(C)Oc3c(C)c(O)c4c(O)c(c(/C=N/N5CCN(C)CC5)c(O)c4c3C2=O)NC(=O)/C(C)=C\C=C\[C@H](C)[C@H](O)[C@@H](C)[C@@H](O)[C@@H](C)[C@H](OC(C)=O)[C@@H]1C [Rifampicin] | – | – | – | – | – | – | – | – | 64 µg/mL (≈ 77.8 µM) | 64 µg/mL (≈ 77.8 µM) | 6.35 µg/mL (≈ 7.72 µM) | 1 µg/mL (≈ 1.22 µM) | 32 µg/mL (≈ 38.9 µM) | 2 µg/mL (≈ 2.43 µM) | –
16 | Synercid | 2 µg/mL | 1.61 µg/mL | 1 µg/mL | 16 µg/mL | 0.062-16 | ≤ 0.125 µg/mL | 0.25 µg/mL | 0.25 µg/mL | – | – | – | – | – | – | broth MIC ([8]; MRSE 879, broth): 0.5 µg/mL; concentration which would kill adherent bacteria [10]: 2 µg/mL
